Assays:
[1] = tested on: Human iPS cell-derived intestinal epithelial cells F-hiSIEC; assay: Gene expression of EEC markers in F-hiSIEC cells cultured in culture media of Table 1 (real-time PCR, Day 9); type: cell-based; conditions: LY411575 (composition 4, 1 μmol/L, no EGF) compared with DAPT (composition 6, 10 μmol/L)
Source text: (§1) Human iPS cell-derived intestinal epithelial cells (including intestinal stem cells, LGR5+ cells) F-hiSIEC™ (FUJIFILM Corporation) were thawed on the day 0 and seeded at 1.0×10^6 cells/well on a cell culture insert coated with Matrigel™ (Corning Incorporated) by using F-hiSIEC™ Seeding Medium (FUJIFILM Corporation), and then from the next day, the culture medium was exchanged every other day with each culture medium (culture medium compositions 1 to 6) in Table 1. Coating, seeding, and culture medium exchange were carried out according to the F-hiSIEC instruction manual to obtain a cell sheet. The total RNA was extracted from the cells on the Day 9. For RNA extraction, the cells were lysed with Qiazol (QIAGEN), 20% of chloroform was added thereto, mixed, and centrifuged at 12,000 g for 10 minutes to obtain a solution, and the supernatant of the solution was recovered. Total RNA was extracted from the supernatant according to the manual using an RNeasy mini kit (QIAGEN). cDNA was synthesized from the total RNA using a High Capacity RNA-to-cDNA kit (Applied Biosystems) according to the manual. The obtained cDNA was subjected to the measurement of the gene expression level by using a ViiA7 real-time PCR system (Applied Biosystems) with a Taqman Gene Expression Assay system and a Taqman Gene Expression Master Mix (Applied Biosystems). The Taqman Assay ID used were as follows: 18s: 03003631_g1, CHGA: Hs00900370_m1, TPH1: Hs00188220_m1, PYY: Hs00373890_g1, and REG4: Hs00230746_m1.
(§2) Gene expression levels for comparison are indicated in terms of relative value in a case where the expression in the control group cultured in the F-hiSIEC Culture Medium is corrected with the expression level of the internal standard gene 18S according to the […] and then is set to 1.

[2] = tested on: Human iPS cell-derived intestinal epithelial cells F-hiSIEC; assay: Gene expression of EEC markers in F-hiSIEC cells cultured with LY411575 or DAPT added (culture media of Table 2, real-time PCR, Day 9); type: cell-based
Source text: as §1, with “compositions 7” for “compositions 1”, “to 13)” for “to 6)”, “Table 2.” for “Table 1.”, “18s: 03003631_g1.” for “18s: 03003631_g1,”, “CHGA: Hs00900370_m1.” for “CHGA: Hs00900370_m1, TPH1: Hs00188220_m1,”, “and NEUROG3: Hs01875204_s1.” for “and REG4: Hs00230746_m1.”
as §2

[3] = LY411575 2 μmol/L addition group (culture medium composition 11), among compositions 7 to 13
[4] = LY411575 addition groups (0.5 to 2.0 μmol/L) compared with DAPT addition groups (5 to 10 μmol/L), no EGF, FIG. 2

C[C@H](NC(=O)[C@@H](O)c1cc(F)cc(F)c1)C(=O)N[C@@H]1C(=O)N(C)c2ccccc2-c2ccccc21 [LY411575]
expression of CHGA [1]: remarkably high
expression of PYY [1]: remarkably high
expression of Reg4 [1]: remarkably high
expression of TPH1 [1]: remarkably high
expression level of CHGA [2, 3]: highest
expression level of NEUROG3 [2, 3]: highest
expression level of PYY [2, 3]: highest
expression of CHGA [2, 4]: high
expression of PYY [2, 4]: remarkably high

From patent US20240279613A1, “METHOD OF PRODUCING ENTEROENDOCRINE CELL, ENTEROENDOCRINE CELL DERIVED FROM PLURIPOTENT STEM CELL, CULTURE MEDIUM OR CULTURE MEDIUM KIT, AND USE THEREOF” (FUJIFILM Corporation, priority 2021, published 2024)
